Assay results reported in US20090088345A1, “NECESSARY AND SUFFICIENT REAGENT SETS FOR CHEMOGENOMIC ANALYSIS” (priority 2004, published 2009).

Tested on: PPARα signature
Assay: Scalar product (signature score) of compound treatments against PPARα gene signatures from rat liver microarray expression profiles
Type: in vivo
Conditions: previous observation, original PPARα signature
Method: “Scalar product” (or “Signature score”) as used herein refers to the sum of impacts for all genes in a signature less the bias for that signature.
The detailed description of the construction of this chemogenomic dataset is described in Examples 1 and 2 of Published U.S. Pat. Appl. No. 2005/0060102 A1, published Mar. 17, 2005, which is hereby incorporated by reference for all purposes. Briefly, in vivo short-term repeat dose rat studies were conducted on over 580 test compounds, including marketed and withdrawn drugs, environmental and industrial toxicants, and standard biochemical reagents. Rats (three per group) were dosed daily at either a low or high dose. The low dose was an efficacious dose estimated from the literature and the high dose was an empirically-determined maximum tolerated dose, defined as the dose that causes a 50% decrease in body weight gain relative to controls during the course of the 5 day range finding study. Animals were necropsied on days 0.25, 1, 3, and 5 or 7. […]
Log10-ratios are computed for each gene as the difference of the averaged logs of the experimental signals from (usually) three drug-treated animals and the averaged logs of the control signals from (usually) 20 mock vehicle-treated animals. To assign a significance level to each gene expression change, the standard error for the measured change between the experiments and controls is computed. […]

Compound: CC(C)(Oc1ccc(Cl)cc1)C(=O)O [clofibric acid]
- scalar product against the PPARα signature: weakest of the known PPARα agonists
